What all share (type): biochemical
Test [1] deals with T1, JAK1 (Homo sapiens, UniProt P23458).
T1 construct: made in house; host or cells: SF9 insect cells (baculovirus)
In words: JAK1 inhibition (Table 4). To be noted: read-out: JAK1 Ki.

Test [2] deals with T2, JAK2 (Homo sapiens, UniProt O60674).
T2 construct: made in house; host or cells: SF9 insect cells (baculovirus)
In words: JAK2 inhibition (Table 4). To be noted: read-out: JAK2 Ki.

Test [3] has as its target T3, JAK3 (Homo sapiens, UniProt P52333).
T3 construct: made in house; host or cells: SF9 insect cells (baculovirus)
The test is described as follows: JAK3 inhibition (Table 4). The following applies: read-out: JAK3 Ki.

The target in test [4] is T4, TYK2 (Homo sapiens, UniProt P29597).
T4 construct: made in house; host or cells: SF9 insect cells (baculovirus)
T4 sequence (P29597 873-1187): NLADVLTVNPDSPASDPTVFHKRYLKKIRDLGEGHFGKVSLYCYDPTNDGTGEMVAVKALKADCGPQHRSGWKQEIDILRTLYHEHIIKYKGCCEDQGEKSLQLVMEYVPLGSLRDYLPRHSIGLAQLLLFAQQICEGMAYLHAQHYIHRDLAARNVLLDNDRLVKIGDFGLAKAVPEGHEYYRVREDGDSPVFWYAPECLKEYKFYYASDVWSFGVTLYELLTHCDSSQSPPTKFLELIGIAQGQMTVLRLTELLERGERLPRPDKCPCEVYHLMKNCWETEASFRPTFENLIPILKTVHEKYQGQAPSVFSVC
The test is described as follows: TYK2 inhibition (Table 4).

Molecules are shown by their SMILES.

T3 sequence (P52333 783-1124): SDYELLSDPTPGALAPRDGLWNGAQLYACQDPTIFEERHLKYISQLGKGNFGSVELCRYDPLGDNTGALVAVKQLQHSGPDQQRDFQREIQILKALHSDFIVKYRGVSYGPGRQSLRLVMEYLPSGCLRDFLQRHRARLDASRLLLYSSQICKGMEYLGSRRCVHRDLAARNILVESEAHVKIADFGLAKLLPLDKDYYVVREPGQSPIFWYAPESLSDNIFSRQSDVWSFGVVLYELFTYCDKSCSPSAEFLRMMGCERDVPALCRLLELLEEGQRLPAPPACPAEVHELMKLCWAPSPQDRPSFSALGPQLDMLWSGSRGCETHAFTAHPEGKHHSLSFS
T2 sequence (O60674 812-1132): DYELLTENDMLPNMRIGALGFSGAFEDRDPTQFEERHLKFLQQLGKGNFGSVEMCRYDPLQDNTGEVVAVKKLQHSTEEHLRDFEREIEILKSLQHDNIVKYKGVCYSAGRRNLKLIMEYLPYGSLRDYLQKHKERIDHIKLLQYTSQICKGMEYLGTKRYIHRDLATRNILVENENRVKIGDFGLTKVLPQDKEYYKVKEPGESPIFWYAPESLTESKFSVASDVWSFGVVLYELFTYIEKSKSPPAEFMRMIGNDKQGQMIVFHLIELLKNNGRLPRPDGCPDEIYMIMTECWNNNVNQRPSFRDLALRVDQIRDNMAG
T1 sequence (P23458 852-1154): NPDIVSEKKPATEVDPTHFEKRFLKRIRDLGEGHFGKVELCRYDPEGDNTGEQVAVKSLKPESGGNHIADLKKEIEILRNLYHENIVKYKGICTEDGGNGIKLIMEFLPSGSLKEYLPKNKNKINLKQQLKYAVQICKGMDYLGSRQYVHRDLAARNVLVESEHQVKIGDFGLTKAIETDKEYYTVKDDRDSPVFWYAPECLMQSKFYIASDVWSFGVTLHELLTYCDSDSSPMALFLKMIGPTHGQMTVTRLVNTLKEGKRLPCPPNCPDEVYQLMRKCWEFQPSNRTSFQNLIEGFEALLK

Usually Ki stands for a dissociation constant, usually derived from enzyme kinetics or from competition with a known ligand. Consider `CC(O)CN1CCC(n2c(C(C)O)nc3cnc4[nH]ccc4c32)CC1` (stereo not drawn) [Example 934, 1-{4-[2-(1-Hydroxy-ethyl)-6H-1,3,5,6-tetraaza-as-indacen-1-yl]-piperidin-1-yl}-propan-2-ol], for which the Ki in test [1] was determined as 12.9 nM; in test [2], 669 nM; in test [3], 549 nM; in test [4], 465 nM.

In the case of `Cc1noc(CN2CC[C@H](n3c([C@@H](C)O)nc4cnc5[nH]ccc5c43)C2)n1` [Example 935, (R)-1-{1-[(S)-1-(3-Methyl-[1,2,4]oxadiazol-5-ylmethyl)-pyrrolidin-3-yl]-1,6-dihydro-1,3,5,6-tetraaza-as-indacen-2-yl}-ethanol], the Ki in test [1] worked out at 65.5 nM; in test [2], 1060 nM; in test [3] it was 394 nM; in test [4], 542 nM.

With `CC(O)c1nc2cnc3[nH]ccc3c2n1C1CC2CCC1O2` (stereo not drawn) [Example 938, 1-[1-(7-Oxa-bicyclo[2.2.1]hept-2-yl)-1,6-dihydro-1,3,5,6-tetraaza-as-indacen-2-yl]-ethanol], the Ki was 88.3 nM in test [1], 263 nM in test [2], 119 nM in test [3] and 175 nM in test [4].

As for `C[C@@H](O)c1nc2cnc3[nH]ccc3c2n1C1CC2CCC1C2` (stereo partly drawn) [Example 943, (R)-1-(1-Bicyclo[2.2.1]hept-2-yl-1,6-dihydro-1,3,5,6-tetraaza-as-indacen-2-yl)-ethanol], the Ki in test [1] was 0.57 nM; in test [2], 8.22 nM; in test [3], 18.7 nM; in test [4], 2.92 nM.

For `c1cc2c(ncc3ncn([C@H]4[C@@H]5CNC[C@@H]54)c32)[nH]1` [Example 944, (1R,5S,6S)-1-(3-Aza-bicyclo[3.1.0]hex-6-yl)-1,6-dihydro-1,3,5,6-tetraaza-as-indacene], the Ki in test [1] was 229 nM; in test [2], 886 nM; in test [3], 2440 nM; in test [4], 1810 nM.

Take `Cn1ncc2c1CC[C@H](n1cnc3cnc4[nH]ccc4c31)C2` [Example 954, 1-((S)-1-Methyl-4,5,6,7-tetrahydro-1H-indazol-5-yl)-1,6-dihydro-1,3,5,6-tetraaza-as-indacene]: the Ki was determined as 39.9 nM in test [1], 97.6 nM in test [2], 344 nM in test [3] and 338 nM in test [4].

On to `Cn1ncc2c1CC[C@@H](n1cnc3cnc4[nH]ccc4c31)C2` [Example 955, 1-((R)-1-Methyl-4,5,6,7-tetrahydro-1H-indazol-5-yl)-1,6-dihydro-1,3,5,6-tetraaza-as-indacene], for which the Ki in test [1] worked out at 7.67 nM; in test [2], 8.9 nM; in test [3] it was 109 nM; in test [4], 53.6 nM.

With `CC(C)(O)[C@H]1CC[C@@H](n2cnc3cnc4[nH]ccc4c32)CC1` [Example 957, Cis-2-[4-(6H-1,3,5,6-Tetraaza-as-indacen-1-yl)-cyclohexyl]-propan-2-ol], the Ki turned out to be 50 nM in test [1], 60.2 nM in test [2], 210 nM in test [3] and 174 nM in test [4].

On to `N#CCCn1ncc2c1CC[C@H](n1cnc3cnc4[nH]ccc4c31)C2` [Example 959, 3-[(S)-5-(6H-1,3,5,6-Tetraaza-as-indacen-1-yl)-4,5,6,7-tetrahydro-indazol-1-yl]-propionitrile], for which the Ki in test [1] was determined as 4.63 nM; in test [2], 6.3 nM; in test [3], 86.5 nM; in test [4], 38 nM.

With `N#CCCn1ncc2c1CC[C@@H](n1cnc3cnc4[nH]ccc4c31)C2` [Example 992, 3-[(R)-5-(6H-1,3,5,6-Tetraaza-as-indacen-1-yl)-4,5,6,7-tetrahydro-indazol-1-yl]-propionitrile], the Ki in test [1] was found to be 17.8 nM; in test [2], 37.3 nM; in test [3], 253 nM; in test [4], 108 nM.

Take `CC1(O)CCC(n2cnc3cnc4[nH]ccc4c32)CC1` (stereo not drawn) [Example 993, Cis-1-Methyl-4-(6H-1,3,5,6-tetraaza-as-indacen-1-yl)-cyclohexanol]: the Ki in test [1] turned out to be 1.67 nM; in test [2], 4 nM; in test [3], 24.1 nM; in test [4] it was 7.15 nM.

As for `Cc1nc2cnc3[nH]ccc3c2n1C1CCC(C)(O)CC1` (stereo not drawn) [Example 994, Trans-1-Methyl-4-(2-methyl-6H-1,3,5,6-tetraaza-as-indacen-1-yl)-cyclohexanol], the Ki was 2.91 nM in test [1], 8.02 nM in test [2], 17 nM in test [3] and 25.3 nM in test [4].

As for `OC1(C2CC2)CCC(n2cnc3cnc4[nH]ccc4c32)CC1` (stereo not drawn) [Example 995, Trans-1-Cyclopropyl-4-(6H-1,3,5,6-tetraaza-as-indacen-1-yl)-cyclohexanol], the Ki in test [1] came to 6.41 nM; in test [2], 13.7 nM; in test [3], 74.1 nM; in test [4], 32.1 nM.

Take `OC1(C2CC2)CCC(n2cnc3cnc4[nH]ccc4c32)CC1` (stereo not drawn) [Example 996, Cis-1-Cyclopropyl-4-(6H-1,3,5,6-tetraaza-as-indacen-1-yl)-cyclohexanol]: the Ki is 2.01 nM in test [1], 3.85 nM in test [2], 50.8 nM in test [3] and 9.23 nM in test [4].

On to `C[C@@H](O)c1nc2cnc3[nH]ccc3c2n1C1CCC(CC#N)CC1` (stereo partly drawn) [Example 1001, {4-[2-((R)-1-Hydroxy-ethyl)-6H-1,3,5,6-tetraaza-as-indacen-1-yl]-cyclohexyl}-acetonitrile], for which the Ki in test [1] was 1.15 nM; in test [2] it was 13 nM; in test [3], 16.7 nM; in test [4], 2.22 nM.

On to `C[C@@H](O)c1nc2cnc3[nH]ccc3c2n1C1CCC(NCC(F)F)CC1` (stereo partly drawn) [Example 1002, (R)-1-{1-[4-(2,2-Difluoro-ethylamino)-cyclohexyl]-1,6-dihydro-1,3,5,6-tetraaza-as-indacen-2-yl}-ethanol], for which the Ki in test [1] amounted to 0.97 nM; in test [2], 22.1 nM; in test [3], 111 nM; in test [4] it was 4.76 nM.

Consider `C[C@@H](O)c1nc2cnc3[nH]ccc3c2n1C1CCC(n2ccnn2)CC1` (stereo partly drawn) [Example 1003, (R)-1-[1-(4-[1,2,3]Triazol-1-yl-cyclohexyl)-1,6-dihydro-1,3,5,6-tetraaza-as-indacen-2-yl]-ethanol], for which the Ki is 5.16 nM in test [1], 63.5 nM in test [2], 129 nM in test [3] and 38.2 nM in test [4].

As to `C[C@@H](O)c1nc2cnc3[nH]ccc3c2n1[C@H]1CC[C@@H](NCC(F)(F)F)C1` [Example 1004, (R)-1-{1-[(1S,3R)-3-(2,2,2-Trifluoro-ethylamino)-cyclopentyl]-1,6-dihydro-1,3,5,6-tetraaza-as-indacen-2-yl}-ethanol], the Ki in test [1] was determined as 1.69 nM; in test [2], 63 nM; in test [3], 44.4 nM; in test [4], 17 nM.

For the compound `C[C@@H](O)c1nc2cnc3[nH]ccc3c2n1[C@H]1CC[C@@H](NCC(F)F)C1` [Example 1005, (R)-1-{1-[(1S,3R)-3-(2,2-Difluoro-ethylamino)-cyclopentyl]-1,6-dihydro-1,3,5,6-tetraaza-as-indacen-2-yl}-ethanol], the Ki in test [1] is 2.36 nM; in test [2] it was 86.1 nM; in test [3], 26.3 nM; in test [4], 18.1 nM.

For `N#CCCC1CCC(n2c(C(O)CO)nc3cnc4[nH]ccc4c32)CC1` (stereo not drawn) [Example 1006, 3-{4-[2-(1,2-Dihydroxy-ethyl)-6H-1,3,5,6-tetraaza-as-indacen-1-yl]-cyclohexyl}-propionitrile], the Ki in test [1] was determined as 0.8 nM; in test [2] it was 4.49 nM; in test [3], 11.3 nM; in test [4], 3.52 nM.

With `C[C@@H](O)c1nc2cnc3[nH]ccc3c2n1[C@H]1CC[C@H](NCC(F)(F)F)C1` [Example 1008, (R)-1-{1-[(1S,3S)-3-(2,2,2-Trifluoro-ethylamino)-cyclopentyl]-1,6-dihydro-1,3,5,6-tetraaza-as-indacen-2-yl}-ethanol], the Ki in test [1] was 1.72 nM; in test [2], 23.9 nM; in test [3], 98 nM; in test [4] it was 7.93 nM.

Turning to `C[C@@H](O)c1nc2cnc3[nH]ccc3c2n1C1CCC(NCC(F)(F)F)CC1` (stereo partly drawn) [Example 1009, (R)-1-{1-[4-(2,2,2-Trifluoro-ethylamino)-cyclohexyl]-1,6-dihydro-1,3,5,6-tetraaza-as-indacen-2-yl}-ethanol], the Ki was 59.5 nM in test [1], 116 nM in test [2], 44 nM in test [3] and 75.5 nM in test [4].

`C[C@@H](O)c1nc2cnc3[nH]cc(Br)c3c2n1C1CCC(CC#N)CC1` (stereo partly drawn) [Example 1010, {4-[8-Bromo-2-((R)-1-hydroxy-ethyl)-6H-1,3,5,6-tetraaza-as-indacen-1-yl]-cyclohexyl}-acetonitrile]: the inhibition constant Ki in test [1] is 1.12 nM; in test [2] it was 1.66 nM; in test [3] it was 0.33 nM; in test [4], 2.2 nM.

In the case of `C[C@@H](O)c1nc2cnc3[nH]ccc3c2n1[C@H]1COCCC1(F)F` [Example 1011, (R)-1-[1-((S)-4,4-Difluoro-tetrahydro-pyran-3-yl)-1,6-dihydro-1,3,5,6-tetraaza-as-indacen-2-yl]-ethanol], the Ki in test [1] stood at 18 nM; in test [2] it was 133 nM; in test [3] it was 79.3 nM; in test [4], 81.7 nM.
